From patent US20170183318A1, “AMIDE COMPOUNDS, METHODS FOR PREPARATION, AND USE THEREOF AS AGENTS FOR THE TREATMENT AND PREVENTION OF DISEASES CAUSED BY RNA- AND/OR DNA-CONTAINING VIRUSES, AND CONCOMITANT DISEASES” (OBSCHESTVO S OGRANICHENNOI OTVETSTVENNOSTIYU …, priority 2014, published 2017)

How the values were obtained:
[1] = tested on: human respiratory syncytial virus (strain A2); experiment: Antiviral activity against RS virus in a murine model of suppressed immune system (lung edema); type: in vivo; conditions: Balb/c mice, cyclophosphan-suppressed, RS-virus pneumonia; 30 mg/kg once daily for 5 days; M ± SD, n = 5; scores from possible 4
Experimental: Antiviral activity of the chemical compounds against human respiratory syncytial virus (strain A2, an infectious titer of 5×10^6 TCID50/mL) was assessed in a Balb/c murine model of viral pneumonia. The virus was inoculated to animals intranasally in a volume of 50 μL under brief ether anesthesia. The immune response in animals to RS virus was suppressed by intraperitoneal administration of cyclophosphan at a dose of 100 mg/kg 5 days before infection. The studied compounds were administered according to the treatment regimen once daily at a dose of 30 mg/kg for 5 days, starting 24 hours after infection. The activity of the compounds was determined by a reduction in edema of the lung infected with respiratory syncytial virus, compared to the control, on day 5 after infection.

hRV = experiment: Antiviral activity against rhinovirus in mice (infectious titer in lungs titrated in Hela cells; body and lung weight); type: in vivo; conditions: 30 mg/kg orally once daily for 4 days from 12 h after infection; lung suspension titrated in Hela cells
Experimental: In this study, author's strain of hRV was used. The animals were infected with the virus intranasally under brief ether anesthesia in a volume of 0.05 ml/mouse.
To determine the efficiency of the compounds against hRV in the experimental model in vivo, the virus was previously titrated in mice, then the mice were infected, and the studied compounds were administered orally. The infectious titer was assessed on day 4 after infection by titration of a lung suspension in Hela cell culture. The infectious titer of the hRV virus in the lugs of the experimental group was determined in comparison with that in the control group by TCID.
The studied compounds and placebo (physiological solution) were orally administered to the mice once daily for 4 days, starting 12 hours after infection. The compounds were administered at a dose of 30 mg/kg of animal body weight. Intact animals served as a negative control and were kept under the same conditions as the experimental animals in a separate room.
The antiviral activity of the studied compounds was determined on day 4 after infection by a reduction of the virus infectious activity determined in Hela cell culture.

[2] = tested on: herpes simplex virus belonging to antigenic type 2; experiment: Murine model of experimental herpetic meningoencephalitis (mortality); type: in vivo, white outbred mice; conditions: Mus musculus, po, 336 h
Experimental: In the study, herpes simplex virus belonging to antigenic type 2 was used. White outbred mice weighing 7-8 g were infected i/c (intracerebrally) in a volume of 0.05 ml/mouse comprising a dose of 10LD50. The infectious dose of the virus that caused 100% mortality in mice was 10LD50. Each experimental group comprised 20 mice. Intact animals served as control and were hold in a separate room under the same conditions as the experimental animals. The antiviral activity of the compounds of general formula I was studied by oral administration of the compounds to infected mice once daily at a dose of 30 mg/kg/mouse 24, 48, 72, 96, and 120 hours after infection of the animals with the virus. The mice of the control group were administered placebo (0.2 mL of physiological solution) under the same conditions. The animals were monitored for 14 days after infection by registration the mouse death in the groups.
Each animal was subjected to once-daily observation. The observation included the assessment of general behavior and body condition of animals. The animals were handled according to the International Standards.
The activity of the compounds was evaluated by comparing mortality rates in the groups of animals administered a preparation and placebo.

human adenovirus type 5 = experiment: Model of experimental adenovirus infection (destructive processes in the liver, electron microscopy); type: in vivo; conditions: newborn Syrian hamsters, 30 mg/kg orally 12, 36, 60 h after infection, liver 72 h after infection, virus control Intensive damages
Experimental: In the study, human adenovirus type 5 was used. In order to play adenovirus infection were used Newborn Syrian hamsters, in which the virus caused disseminated viral infection with damage to liver, lung and heart, were used to reproduce the viral infection. The animals were studied 48 hours after birth. Each group comprised 5 hamsters. The virus was inoculated subcutaneously in a volume of 0.1 mL, at a dose of 10^5 TCID50. The treatment was carried out orally with the compounds of general formula I at a dose of 30 mg/kg of body weight 12, 36, and 60 hours after infection. The animals of the placebo group were administered phosphate buffered saline. Intact animals served as control and were hold in a separate room under the same conditions as the experimental animals. 72 hours after infection, the animals of each group were euthanized, dissected, and the liver was isolated. The therapeutic effect was evaluated by the action on ultrastructural features of the morphogenesis of adenovirus infection in the liver by electron microscopy.

[3] = tested on: HCoV (antigenically similar to prototype strain OC-43); experiment: Murine model of coronavirus infection (mortality); type: in vivo; conditions: Mus musculus, po, 336 h; HCoV intranasally, C57BL/6 mice; 30 mg/kg orally once daily for 5 days from 24 h after infection; 14 days; 20 mice per group; virus control 60.0
Experimental: In the study, author's strain HCoV was used, identified as group 2 virus antigenically similar to prototype strain OC-43. The efficiency of the compounds was studied in C57BL/6 mice by comparing mortality rates in the treated and control mice for 14 days after infection. Each experimental group comprised 20 mice. The animals were infected intranasally in a volume of 0.03 ml/mouse under brief ether anesthesia.
The studied compounds were administered to the animals orally at a dose of 30 mg/kg of body weight. The animals of the control group were administered physiological solution. Preparations were administered once daily for 5 days. The treatment of animals was started 24 hours after infection.

Staphylococcus aureus = experiment: Murine model of staphylococcal pneumonia (bacterial growth from lung imprints); type: in vivo, outbred mice; conditions: 5 days before and 2 days after S. aureus infection, lung imprints on Columbia agar, control 82.5
Experimental: The efficiency of the compounds was evaluated in outbred mice (females) infected with Staphylococcus aureus (mouse-adapted strain). The administration of the compounds was started 5 days before infection, orally at doses of 15 and 30 mg/kg in a volume of 0.2 mL. On day 5, the mice were infected intranasally under brief ether anesthesia by administration of Staphylococcus aureus at a dose of 10^9 CFU in a volume of 0.05 mL. One hour after infection, the administration of the compounds to the mice was continued at the above-indicated doses for additional 2 days. The reference drug was ampicillin administered intravenously at a single dose of 20 mg/kg. The control was mice infected with Staphylococcus aureus intranasally and treated with PBS. The mice were sacrificed two days after, the breast was dissected, and lung imprints were made in Petri dishes with Columbia agar. After incubation for 24 hours at 30° C., the presence (or absence) of Staphylococcus aureus bacterial growth was fixed in comparison with the control. The intensity of bacterial growth was evaluated in scores and expressed in %.

O=C(O)CCCC(=O)NCCCc1c[nH]cn1 [Compound 118]
Degree of lung edema on day 5 after infection, score [1]: 1.85 ± 0.45 score | Infectious titer of the virus in lungs lg TCID50 (4 days after infection) (hRV): 0 ± 0 lg TCID50 | mortality at 30 mg/kg [2]: 70% | Evaluation of damage (intensity of destructive processes in the liver) (human adenovirus type 5): Mild damage | mortality at 30 mg/kg [3]: 40% | Bacterial growth, in % (Staphylococcus aureus; 15 mg/kg orally): 55% | Bacterial growth, in % (Staphylococcus aureus; 30 mg/kg orally): 50 (sporadic colonies (up to 100))

CC(Cc1cnc[nH]1)NC(=O)CCCC(=O)O (stereo not drawn) [Compound 115]
Degree of lung edema on day 5 after infection, score [1]: 1.60 ± 0.5 score | Infectious titer of the virus in lungs lg TCID50 (4 days after infection) (hRV): 0.05 ± 0.05 lg TCID50 | mortality at 30 mg/kg [2]: 65% | Evaluation of damage (intensity of destructive processes in the liver) (human adenovirus type 5): Mild damage | mortality at 30 mg/kg [3]: 30% | Bacterial growth, in % (Staphylococcus aureus; 15 mg/kg orally): 55% | Bacterial growth, in % (Staphylococcus aureus; 30 mg/kg orally): 25 (sporadic colonies (up to 10))

O=C(O)CCCC(=O)NCCCc1cccs1 [Compound 34]
Degree of lung edema on day 5 after infection, score [1]: 1.75 ± 0.4 score | Infectious titer of the virus in lungs lg TCID50 (4 days after infection) (hRV): 0.5 ± 0.20 lg TCID50 | mortality at 30 mg/kg [2]: 70% | Evaluation of damage (intensity of destructive processes in the liver) (human adenovirus type 5): Mild damage | mortality at 30 mg/kg [3]: 45% | Bacterial growth, in % (Staphylococcus aureus; 15 mg/kg orally): 25 (sporadic colonies (up to 10)) | Bacterial growth, in % (Staphylococcus aureus; 30 mg/kg orally): 50 (sporadic colonies (up to 100))

CC(C)N(CCc1cnc[nH]1)C(=O)CCCC(=O)O [Compound 141]
Degree of lung edema on day 5 after infection, score [1]: 0.55 ± 0.21 score | Infectious titer of the virus in lungs lg TCID50 (4 days after infection) (hRV): 0 ± 0 lg TCID50 | mortality at 30 mg/kg [2]: 50% | Evaluation of damage (intensity of destructive processes in the liver) (human adenovirus type 5): Mild damage | mortality at 30 mg/kg [3]: 35% | Bacterial growth, in % (Staphylococcus aureus; 15 mg/kg orally): 55% | Bacterial growth, in % (Staphylococcus aureus; 30 mg/kg orally): 40%

O=C(O)CCCC(=O)NC(Cc1c[nH]cn1)C(=O)O (stereo not drawn) [Compound 251]
Degree of lung edema on day 5 after infection, score [1]: 0.90 ± 0.21 score | Infectious titer of the virus in lungs lg TCID50 (4 days after infection) (hRV): 0 ± 0 lg TCID50 | mortality at 30 mg/kg [2]: 65% | Evaluation of damage (intensity of destructive processes in the liver) (human adenovirus type 5): Mild damage | mortality at 30 mg/kg [3]: 30% | Bacterial growth, in % (Staphylococcus aureus; 15 mg/kg orally): 55% | Bacterial growth, in % (Staphylococcus aureus; 30 mg/kg orally): 20%

O=C(O)CCCC(=O)NCCC1CCCCN1 (stereo not drawn) [Compound 6]
Degree of lung edema on day 5 after infection, score [1]: 0.90 ± 0.22 score | Infectious titer of the virus in lungs lg TCID50 (4 days after infection) (hRV): 0.4 ± 0.15 lg TCID50 | mortality at 30 mg/kg [2]: 60% | Evaluation of damage (intensity of destructive processes in the liver) (human adenovirus type 5): Mild damage | mortality at 30 mg/kg [3]: 35% | Bacterial growth, in % (Staphylococcus aureus; 15 mg/kg orally): 45% | Bacterial growth, in % (Staphylococcus aureus; 30 mg/kg orally): 55%

O=C(O)CCCC(=O)NCCC1CCCN1 (stereo not drawn) [Compound 2]
Degree of lung edema on day 5 after infection, score [1]: 1.95 ± 0.32 score | Infectious titer of the virus in lungs lg TCID50 (4 days after infection) (hRV): 0.1 ± 0.05 lg TCID50 | mortality at 30 mg/kg [2]: 55% | Evaluation of damage (intensity of destructive processes in the liver) (human adenovirus type 5): Mild damage | mortality at 30 mg/kg [3]: 30% | Bacterial growth, in % (Staphylococcus aureus; 15 mg/kg orally): 50 (sporadic colonies (up to 100)) | Bacterial growth, in % (Staphylococcus aureus; 30 mg/kg orally): 55%

Cc1csc(CCNC(=O)CCCC(=O)O)n1 [Compound 197]
Degree of lung edema on day 5 after infection, score [1]: 1.15 ± 0.23 score | Infectious titer of the virus in lungs lg TCID50 (4 days after infection) (hRV): 0.37 ± 0.06 lg TCID50 | mortality at 30 mg/kg [2]: 55% | Evaluation of damage (intensity of destructive processes in the liver) (human adenovirus type 5): Mild damage | mortality at 30 mg/kg [3]: 45% | Bacterial growth, in % (Staphylococcus aureus; 15 mg/kg orally): 45% | Bacterial growth, in % (Staphylococcus aureus; 30 mg/kg orally): 60%

O=C(O)CCCC(=O)NCCc1nc2ccccc2s1 [Compound 275]
Degree of lung edema on day 5 after infection, score [1]: 1.80 ± 0.20 score | Infectious titer of the virus in lungs lg TCID50 (4 days after infection) (hRV): 0.45 ± 0.1 lg TCID50 | mortality at 30 mg/kg [2]: 60% | Evaluation of damage (intensity of destructive processes in the liver) (human adenovirus type 5): Mild damage | mortality at 30 mg/kg [3]: 40% | Bacterial growth, in % (Staphylococcus aureus; 15 mg/kg orally): 35% | Bacterial growth, in % (Staphylococcus aureus; 30 mg/kg orally): 40%
